# Reference: patent EP4186514A1, “PHARMACEUTICAL COMPOSITION FOR PREVENTING OR TREATING CHOLANGITIS OR LIVER DISEASE CAUSED BY CHOLANGITIS COMPRISING ADENOSINE DERIVATIVE” (Future Medicine Co., Ltd., priority 2021, dated 2023)
# Experiments:
# A1 adenosine receptor = molecular target: T1, A1 adenosine receptor (Homo sapiens, UniProt P30542); assay: Radioligand binding affinity, A1 adenosine receptor ([3H]CCPA, CHO cells); design: % hA1: dose or concentration left out as unconfirmed; settings: for % hA1: percentage inhibition of specific binding of [3H]CCPA; for Ki: nM ± SEM, read-out: Ki(nM) hA1
# T1 construct: expressed in transfected cells; host or cells: CHO cells (ATCC No. CCL-61)
# T1 sequence (P30542 1-326): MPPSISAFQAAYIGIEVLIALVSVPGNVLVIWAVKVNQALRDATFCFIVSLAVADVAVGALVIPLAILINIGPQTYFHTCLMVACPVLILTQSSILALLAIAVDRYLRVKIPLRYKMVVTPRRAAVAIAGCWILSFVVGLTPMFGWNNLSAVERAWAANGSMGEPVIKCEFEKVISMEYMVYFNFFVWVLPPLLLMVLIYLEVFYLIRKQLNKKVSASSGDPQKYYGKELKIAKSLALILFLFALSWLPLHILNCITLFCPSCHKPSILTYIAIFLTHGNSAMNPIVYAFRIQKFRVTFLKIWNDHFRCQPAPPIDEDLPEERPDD
# Protocol: (§1) CHO cells (ATCC No. CCL-61), in which A1 and A3 adenosine receptors were expressed, were cultured in F-12 media (Gibco, U.S.A.) supplemented with 10% fetal bovine serum (FBS) and penicillin/streptomycin (100 units/ml and 100 g/ml), at 37° C. in a 5% CO2 atmosphere. […] Incubation for 1 hr in a 37° C. incubator was followed by rapid filtration in a vacuum using a cell collector (TOMTEC, U.S.A.). Subsequently, the test tubes were washed three times with 3 ml of the buffer before radioactivity was measured using a γ-counter. […] Ki for binding affinity was determined by subtracting the non-specific binding value from the total binding value. On the basis of the specific binding values, the samples were analyzed for binding affinity to various adenosine receptors.
# A3 adenosine receptor = molecular target: T2, A3 adenosine receptor (Homo sapiens, UniProt P0DMS8); assay: Radioligand binding affinity, A3 adenosine receptor ([125I]AB-MECA, CHO cells); design: % hA3: dose or concentration left out as unconfirmed; settings: for Ki: nM ± SEM, read-out: Ki(nM) hA3
# T2 construct: expressed in transfected cells; host or cells: CHO cells (ATCC No. CCL-61)
# T2 sequence (P0DMS8 1-318): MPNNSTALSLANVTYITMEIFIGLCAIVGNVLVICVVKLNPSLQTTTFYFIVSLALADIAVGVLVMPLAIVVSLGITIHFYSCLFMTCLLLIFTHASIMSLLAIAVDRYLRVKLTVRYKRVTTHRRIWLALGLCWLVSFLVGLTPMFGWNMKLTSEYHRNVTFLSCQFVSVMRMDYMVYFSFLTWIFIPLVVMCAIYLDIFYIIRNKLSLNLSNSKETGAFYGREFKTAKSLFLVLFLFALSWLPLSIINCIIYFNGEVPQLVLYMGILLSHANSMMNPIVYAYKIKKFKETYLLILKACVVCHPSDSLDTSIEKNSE
# Protocol: as §1
# A2A adenosine receptor = molecular target: T3, A2A adenosine receptor (Homo sapiens, UniProt P29274); assay: Radioligand binding affinity, A2A adenosine receptor ([3H]CGS-21680, HEK 293 cell); settings: for % hA2A: percentage inhibition of specific binding of 10 µM; for Ki: nM ± SEM, read-out: Ki(nM) hA2A
# T3 construct: expressed in transfected cells; host or cells: HEK 293 cell
# T3 sequence (P29274 whole entry): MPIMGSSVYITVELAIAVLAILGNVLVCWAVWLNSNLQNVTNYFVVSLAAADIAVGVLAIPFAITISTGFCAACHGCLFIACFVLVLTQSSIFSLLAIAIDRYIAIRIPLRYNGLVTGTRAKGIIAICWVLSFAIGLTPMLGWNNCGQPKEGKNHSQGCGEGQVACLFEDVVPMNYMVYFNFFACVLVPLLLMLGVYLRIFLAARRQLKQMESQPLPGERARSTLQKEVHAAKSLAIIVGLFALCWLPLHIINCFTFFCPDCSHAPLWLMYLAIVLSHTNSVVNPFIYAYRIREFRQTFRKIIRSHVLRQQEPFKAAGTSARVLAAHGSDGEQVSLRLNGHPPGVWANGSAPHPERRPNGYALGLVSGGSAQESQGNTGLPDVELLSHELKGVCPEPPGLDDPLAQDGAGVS
# Protocol: The adenosine derivatives of the present invention were assayed for binding affinity and selectivity for A1, A2A and A3 receptors among human adenosine receptor (hAR) as follows.
# Adenosine deaminase was added alone or in combination with a radioactive ligand when cerebral meninges were incubated at 30° C. for 30 min. Each of the compounds synthesized in the examples was measured for IC50 at least 6 different concentrations, and the measurements were analyzed using SigmaPlot software to determine Ki values.
# [1] = test system: TPA-induced inflammation of the mouse ear; assay: Anti-inflammatory activity, TPA-induced mouse ear inflammation; format: in vivo, ICR mice; settings: for anti-inflammatory activity: 0.5% in acetone, 20 µl, FIG. 11 (Exp. Ex. 12)
# Protocol: The adenosine derivatives of the present invention were examined for anti-inflammatory activity in the following animal test. Seven-week-old male ICR mice were treated with TPA (12-O-tetradecanoylphorbol-13-acetate, 20 µl) in the right ear. […] Hydrocortisone was used at the same concentration as a control.
# 6 hrs after treatment with TPA, the mice were secondarily treated with the adenosine derivatives of the present invention. 24 hrs after TPA treatment, test animals were euthanized using a cervical dislocation method. Samples were obtained from the right ear using a 6 mm diameter punch. The activity was observed by measuring the ear sample using a microbalance. Percentages of inhibition were calculated using the following Equation 1. The compositions and amounts used in these experiments are summarized in Tables 14 to 17 and the anti-inflammatory activities thereof are shown in FIGS. 10 to 13. % Inhibition = (1−Rt.Ear(Test−Nontreated))/(Rt.Ear(TPAonly−Nontreated)) [formula]
# [2] = 0.5% in a mixture of DMSO and acetone (1:9), FIG. 13 (Exp. Ex. 14)
# [3] = 0.5% in a mixture of distilled water and acetone (1:4), FIG. 12 (Exp. Ex. 13)
smiles,measurement,setting,value
"O[C@@H]1[C@H](O)CS[C@H]1n1cnc2c(NCc3cccc4ccccc34)nc(Cl)nc21 [Example 8, (2R,3R,4S)-2-(2-chloro-6-(naphthalen-1-ylmethylamino)-9H-purin-9-yl)tetrahydrothiophen-3,4-diol]",% hA1,A1 adenosine receptor,22.0%
same,Ki,A3 adenosine receptor,24.8 ± 8.1 nM
same,% hA2A,A2A adenosine receptor,-8.3%
"O[C@@H]1[C@H](O)CS[C@H]1n1cnc2c(NCc3cccc(F)c3)ncnc21 [Example 11, (2R,3R,4S)-2-(6-(3-fluorobenzylamino)-9H-purin-9-yl)tetrahydrothiophen-3,4-diol]",Ki,A1 adenosine receptor,1430 ± 420 nM
same,Ki,A3 adenosine receptor,7.3 ± 0.6 nM
same,Ki,A2A adenosine receptor,1260 ± 330 nM
"O[C@@H]1[C@H](O)CS[C@H]1n1cnc2c(NCc3cccc(Br)c3)ncnc21 [Example 13, (2R,3R,4S)-2-(6-(3-bromobenzylamino)-9H-purin-9-yl)tetrahydrothiophen-3,4-diol]",Ki,A1 adenosine receptor,790 ± 190 nM
same,Ki,A3 adenosine receptor,6.8 ± 3.4 nM
same,Ki,A2A adenosine receptor,420 ± 32 nM
"O[C@@H]1[C@H](O)CS[C@H]1n1cnc2c(NCc3cccc(Br)c3)nc(Cl)nc21 [Example 3, (2R,3R,4S)-2-(6-(3-bromobenzylamino)-2-chloro-9H-purin-9-yl)tetrahydrothiophen-3,4-diol]",% hA1,A1 adenosine receptor,34.2%
same,Ki,A3 adenosine receptor,8.99 ± 5.17 nM
same,% hA2A,A2A adenosine receptor,18.4%
"O[C@@H]1[C@H](O)CO[C@H]1n1cnc2c(NCc3cccc(Br)c3)nc(Cl)nc21 [Example 15, (2R,3R,4R)-2-(6-(3-bromobenzylamino)-2-chloro-9H-purin-9-yl)tetrahydrofuran-3,4-diol]",percentages of inflammation inhibition,[1]; [2],59%
same,% hA1,A1 adenosine receptor,39.8%
same,Ki,A3 adenosine receptor,13 ± 6.9 nM
same,% hA2A,A2A adenosine receptor,22.8%
"CNc1nc(Cl)nc2c1ncn2[C@@H]1SC[C@H](O)[C@@H]1O [Example 10, 2-(2-chloro-6-methylamino-purin-9-yl)tetrahydrothiophen-3,4-diol]",% hA1,A1 adenosine receptor,55.4 ± 1.8%
same,Ki,A3 adenosine receptor,3.69 ± 0.25 nM
same,% hA2A,A2A adenosine receptor,45.0 ± 1.4%
"O[C@@H]1[C@H](O)CO[C@H]1n1cnc2c(NCc3cccc(I)c3)nc(Cl)nc21 [Example 16, (2R,3R,4R)-2-(2-chloro-6-(3-iodobenzylamino)-9H-purin-9-yl)tetrahydrofuran-3,4-diol]",percentages of inflammation inhibition,[1]; [2],79%
same,% hA1,A1 adenosine receptor,37.7%
same,Ki,A3 adenosine receptor,42.9 ± 8.9 nM
same,% hA2A,A2A adenosine receptor,28.6%
"COc1ccc(Cl)cc1CNc1nc(Cl)nc2c1ncn2[C@@H]1SC[C@@H](O)[C@H]1O [Example 6, (2R,3R,4S)-2-(2-chloro-6-(5-chloro-2-methoxybenzylamino)-9H-purin-9-yl)tetrahydrothiophen-3,4-diol]",percentages of inflammation inhibition,[1]; [3],34%
same,anti-inflammatory activity,[1],increased
same,% hA1,A1 adenosine receptor,23.8%
same,Ki,A3 adenosine receptor,12.7 ± 3.7 nM
same,Ki,A2A adenosine receptor,4020 ± 1750 nM
"O=C(O)c1cccc(CNc2nc(Cl)nc3c2ncn3[C@@H]2SC[C@@H](O)[C@H]2O)c1 [Example 9, 3-((2-chloro-9-((2R,3R,4S)-3,4-dihydroxytetrahydrothiophen-2-yl)-9H-purine-6-ylamino)methyl)benzoic acid]",% hA1,A1 adenosine receptor,13.1%
same,% hA3,A3 adenosine receptor; percentage inhibition of specific binding,41.5%
same,% hA2A,A2A adenosine receptor,-0.18%
"O[C@@H]1[C@H](O)CS[C@H]1n1cnc2c(NCc3cccc(F)c3)nc(Cl)nc21 [Example 1, (2R,3R,4S)-2-(2-chloro-6-(3-fluorobenzylamino)-9H-purin-9-yl)tetrahydrothiophen-3,4-diol]",anti-inflammatory activity,[1],increased
same,% hA1,A1 adenosine receptor,19.8%
same,Ki,A3 adenosine receptor,7.4 ± 1.3 nM
same,% hA2A,A2A adenosine receptor,47.6%
"O[C@@H]1[C@H](O)CS[C@H]1n1cnc2c(NCc3ccccc3Cl)nc(Cl)nc21 [Example 5, (2R,3R,4S)-2-(2-chloro-6-(2-chlorobenzylamino)-9H-purin-9-yl)tetrahydrothiophen-3,4-diol]",percentages of inflammation inhibition,[1]; [3],17%
same,% hA1,A1 adenosine receptor,12.8%
same,Ki,A3 adenosine receptor,25.8 ± 6.3 nM
same,Ki,A2A adenosine receptor,1600 ± 135 nM
"O[C@@H]1[C@H](O)CS[C@H]1n1cnc2c(NCc3cccc(Cl)c3)ncnc21 [Example 12, (2R,3R,4S)-2-(6-(3-chlorobenzylamino)-9H-purin-9-yl)tetrahydrothiophen-3,4-diol]",Ki,A1 adenosine receptor,860 ± 210 nM
same,Ki,A3 adenosine receptor,1.5 ± 0.4 nM
same,Ki,A2A adenosine receptor,440 ± 110 nM
"COc1ccccc1CNc1nc(Cl)nc2c1ncn2[C@@H]1SC[C@@H](O)[C@H]1O [Example 7, (2R,3R,4S)-2-(2-chloro-6-(2-methoxybenzylamino)-9H-purin-9-yl)tetrahydrothiophen-3,4-diol]",percentages of inflammation inhibition,[1]; [3],53%
same,% hA1,A1 adenosine receptor,9.4%
same,Ki,A3 adenosine receptor,19.9 ± 7.1 nM
same,% hA2A,A2A adenosine receptor,17.5%
